Results from BigSolDB 2.1.

COC(=O)c1nc[nH]n1
Conditions | solubility (mole fraction)
in 2-pentanone, 278.15 K | 0.000862
in 2-pentanone, 283.35 K | 0.000994
in 2-pentanone, 288.05 K | 0.0012
in 2-pentanone, 292.55 K | 0.00136
in 2-pentanone, 297.95 K | 0.00165
in 2-pentanone, 302.65 K | 0.00192
in 2-pentanone, 307.35 K | 0.00222
in 2-pentanone, 313.05 K | 0.00253
in 2-pentanone, 317.35 K | 0.00285
in 3-pentanone, 278.25 K | 0.000784
in 3-pentanone, 283.35 K | 0.000902
in 3-pentanone, 288.05 K | 0.00107
in 3-pentanone, 292.55 K | 0.00127
in 3-pentanone, 298.35 K | 0.00143
in 3-pentanone, 303.05 K | 0.00172
in 3-pentanone, 307.35 K | 0.00191
in 3-pentanone, 312.85 K | 0.00224
in 3-pentanone, 317.15 K | 0.00243
in MIBK, 278.25 K | 0.000526
in MIBK, 283.35 K | 0.000657
in MIBK, 288.05 K | 0.000734
in MIBK, 292.55 K | 0.000852
in MIBK, 298.35 K | 0.00111
in MIBK, 303.05 K | 0.00127
in MIBK, 307.35 K | 0.00148
in MIBK, 312.55 K | 0.00172
in MIBK, 317.05 K | 0.00197
in THF, 278.15 K | 0.00105
in THF, 283.05 K | 0.00137
in THF, 289.05 K | 0.00196
in THF, 293.25 K | 0.00244
in THF, 298.35 K | 0.00323
in THF, 303.05 K | 0.00419
in THF, 307.35 K | 0.00517
in THF, 313.85 K | 0.00714
in THF, 317.95 K | 0.00875
in acetone, 278.15 K | 0.00153
in acetone, 283.35 K | 0.00181
in acetone, 288.05 K | 0.00203
in acetone, 292.55 K | 0.00232
in acetone, 297.95 K | 0.00286
in acetone, 302.65 K | 0.0033
in acetone, 307.35 K | 0.00382
in acetone, 313.25 K | 0.00458
in acetone, 317.55 K | 0.00508
in acetonitrile, 278.65 K | 0.000843
in acetonitrile, 283.45 K | 0.000993
in acetonitrile, 288.25 K | 0.0012
in acetonitrile, 292.85 K | 0.00142
in acetonitrile, 297.05 K | 0.00168
in acetonitrile, 301.85 K | 0.00206
in acetonitrile, 307.35 K | 0.00245
in acetonitrile, 313.25 K | 0.00305
in acetonitrile, 318.95 K | 0.00384
in cyclohexanone, 278.05 K | 0.00557
in cyclohexanone, 282.95 K | 0.00583
in cyclohexanone, 289.05 K | 0.00622
in cyclohexanone, 293.25 K | 0.00657
in cyclohexanone, 298.35 K | 0.00687
in cyclohexanone, 303.05 K | 0.0075
in cyclohexanone, 307.35 K | 0.00814
in cyclohexanone, 313.75 K | 0.00888
in cyclohexanone, 317.85 K | 0.00962
in cyclopentanone, 277.95 K | 0.00156
in cyclopentanone, 282.85 K | 0.0018
in cyclopentanone, 288.95 K | 0.00219
in cyclopentanone, 293.25 K | 0.00251
in cyclopentanone, 298.25 K | 0.00303
in cyclopentanone, 303.05 K | 0.00356
in cyclopentanone, 307.25 K | 0.00417
in cyclopentanone, 313.65 K | 0.0053
in cyclopentanone, 317.65 K | 0.00632
in ethanol, 278.45 K | 0.00142
in ethanol, 283.15 K | 0.0016
in ethanol, 288.05 K | 0.00204
in ethanol, 292.65 K | 0.00254
in ethanol, 297.25 K | 0.00305
in ethanol, 301.65 K | 0.00378
in ethanol, 306.95 K | 0.00464
in ethanol, 312.65 K | 0.00602
in ethanol, 318.05 K | 0.00759
in isobutanol, 278.65 K | 0.00103
in isobutanol, 283.35 K | 0.00116
in isobutanol, 288.25 K | 0.00141
in isobutanol, 292.85 K | 0.00182
in isobutanol, 297.05 K | 0.00222
in isobutanol, 301.85 K | 0.00273
in isobutanol, 307.15 K | 0.00337
in isobutanol, 313.15 K | 0.00439
in isobutanol, 318.65 K | 0.00581
in isopropanol, 278.55 K | 0.000966
in isopropanol, 283.25 K | 0.00119
in isopropanol, 288.15 K | 0.00146
in isopropanol, 292.75 K | 0.00188
in isopropanol, 297.15 K | 0.00235
in isopropanol, 301.75 K | 0.00297
in isopropanol, 307.05 K | 0.00389
in isopropanol, 312.85 K | 0.00511
in isopropanol, 318.35 K | 0.00693
in methanol, 278.45 K | 0.00294
in methanol, 283.15 K | 0.0033
in methanol, 288.05 K | 0.00385
in methanol, 292.65 K | 0.00467
in methanol, 297.25 K | 0.00537
in methanol, 301.65 K | 0.00645
in methanol, 306.95 K | 0.00768
in methanol, 312.55 K | 0.00952
in methanol, 317.85 K | 0.0115
in n-butanol, 278.55 K | 0.00199
in n-butanol, 283.35 K | 0.00217
in n-butanol, 288.15 K | 0.00246
in n-butanol, 292.75 K | 0.00279
in n-butanol, 297.15 K | 0.00326
in n-butanol, 301.75 K | 0.00378
in n-butanol, 307.15 K | 0.00476
in n-butanol, 312.95 K | 0.00613
in n-butanol, 318.45 K | 0.00818
in n-propanol, 278.55 K | 0.00137
in n-propanol, 283.25 K | 0.00153
in n-propanol, 288.15 K | 0.00183
in n-propanol, 292.75 K | 0.00227
in n-propanol, 297.15 K | 0.00264
in n-propanol, 301.75 K | 0.00325
in n-propanol, 307.05 K | 0.00398
in n-propanol, 312.75 K | 0.00532
in n-propanol, 318.15 K | 0.0069
